Target: triosephosphate isomerase (TcTIM WT) (Trypanosoma cruzi, UniProt P52270)
Experiment: coupled enzyme assay
Assay type: biochemical
Conditions: read-out: approximately 95% inactivation

Sequence of triosephosphate isomerase (TcTIM WT) (P52270 whole entry): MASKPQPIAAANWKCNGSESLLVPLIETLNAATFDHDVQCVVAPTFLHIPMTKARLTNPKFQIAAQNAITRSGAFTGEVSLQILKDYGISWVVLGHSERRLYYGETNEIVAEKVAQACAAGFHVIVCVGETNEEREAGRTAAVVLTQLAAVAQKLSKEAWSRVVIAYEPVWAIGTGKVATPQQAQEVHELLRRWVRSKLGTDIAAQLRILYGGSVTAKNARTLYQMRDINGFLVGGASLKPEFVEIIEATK

IC95: ~75 µM
SMILES: COCCCOc1ccnc(C[S+]([O-])c2nc3ccccc3[nH]2)c1C (stereo not shown) [Rbz, rabeprazole]

From article PMC10351538 (Journal of Enzyme Inhibition and Medicinal Chemistry, 2023)
